Assay results as given in US20240228488A1 (TAKEDA PHARMACEUTICAL COMPANY LIMITED, priority 2021, published 2024).

Experiments:
plasma kallikrein = target: T1, plasma kallikrein (Homo sapiens, UniProt P03952); assay: Neat human plasma assay, FXIIa contact pathway-activated, PFR-AMC substrate; format: biochemical; settings: citrated human plasma 78% final, 10 nM human FXIIa, 100 μM PFR-AMC; read-out: Human Plasma Assay: IC90
T1 construct: from tissue
Method in brief: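 Compound inhibition of plasma kallikrein measured as PFR-AMC (100 μM) cleavage rate over 5 min at room temperature in 78% citrated human plasma activated with 10 nM FXIIa (Tris pH 7.5 buffer). IC50/IC90 from 4-parameter fit of rate versus inhibitor concentration.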

[1] = target: human activated kallikrein enzyme (Homo sapiens, UniProt P03952); assay: Plasma kallikrein inhibition, fluorogenic PFR-AMC substrate, 500 pM activated kallikrein format; format: biochemical; settings: 500 pM activated kallikrein, 300 uM PFR-AMC, 30 min preincubation, 10 min reaction; read-out: Primary Dose Response Assay: Average EC50
Method in brief: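 Fluorescence (ex 380/em 460 nm) is read after 10 min of 300 uM PFR-AMC turnover by 500 pM enzyme at RT. Compounds sit with enzyme for 30 min beforehand. Buffer is Tris (pH 7.5) with EDTA, NaCl, PEG-400 and Triton X-100; EC50 values are banded.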

human activated kallikrein enzyme, sequence (P03952 391-638 limits assumed): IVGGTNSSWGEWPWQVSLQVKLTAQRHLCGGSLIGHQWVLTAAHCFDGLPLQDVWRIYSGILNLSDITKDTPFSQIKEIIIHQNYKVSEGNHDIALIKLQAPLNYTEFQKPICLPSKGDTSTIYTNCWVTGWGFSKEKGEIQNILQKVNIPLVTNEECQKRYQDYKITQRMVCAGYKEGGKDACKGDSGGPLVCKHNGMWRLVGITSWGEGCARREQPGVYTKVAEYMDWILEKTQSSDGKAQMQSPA
human activated kallikrein enzyme, sequence (P03952 20-390 partner limits assumed): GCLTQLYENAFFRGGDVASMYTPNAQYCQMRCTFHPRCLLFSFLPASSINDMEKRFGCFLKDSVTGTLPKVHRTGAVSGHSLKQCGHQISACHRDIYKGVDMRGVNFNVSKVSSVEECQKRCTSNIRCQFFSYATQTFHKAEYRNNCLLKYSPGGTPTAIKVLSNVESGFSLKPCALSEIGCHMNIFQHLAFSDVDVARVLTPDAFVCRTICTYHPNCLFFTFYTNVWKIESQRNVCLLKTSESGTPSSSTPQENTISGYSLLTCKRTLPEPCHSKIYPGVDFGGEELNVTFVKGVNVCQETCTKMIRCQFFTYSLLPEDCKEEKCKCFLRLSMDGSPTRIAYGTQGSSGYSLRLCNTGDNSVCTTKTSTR
T1 sequence (P03952 391-638 limits assumed): as the sequence (P03952 391-638 limits assumed) above
T1 sequence (P03952 20-390 partner limits assumed): as the sequence (P03952 20-390 partner limits assumed) above

SMILES	IC90 (plasma kallikrein) [µM]	EC50 [1] [µM]
Cc1ccnc([C@H]2C[C@@H]2C(=O)Nc2cc(OCc3cn4cc(C5CC5)cc(N5CC(=O)N(CCOCc6ccccc6)C5=O)c4n3)ncn2)n1 (racemic) [Example 31, rac-(1S*,2S*)—N-(6-((8-(3-(2-(benzyloxy)ethyl)-2,4-dioxoimidazolidin-1-yl)-6-cyclopropylimidazo[1,2-a]pyridin-2-yl)methoxy)pyrimidin-4-yl)-2-(4-methylpyrimidin-2-ylcyclopropane-1-carboxamide]	10 to 48	0.001 to 0.01
O=C(Nc1cc(N(CCO)Cc2cn3cc(C4CC4)ccc3n2)ccn1)[C@H]1C[C@@H]1c1cccc(Cl)c1 [Example 604, (1S,2S)-2-(3-chlorophenyl)-N-(4-(((6-cyclopropylimidazo[1,2-a]pyridin-2-yl)methyl)(2-hydroxyethyl)amino)pyridin-2-yl)cyclopropane-1-carboxamide]	10 to 48	0.001 to 0.01
Cc1ccnc([C@H]2C[C@@H]2C(=O)Nc2ncc(F)c(N(C)Cc3cn4cc(C5CC5)cc(N5CC(=O)NC5=O)c4n3)n2)n1 (racemic) [Example 516, rac-(1S*,2S*)-N-(4-(((6-cyclopropyl-8-(2,4-dioxoimidazolidin-1-yl)imidazo[1,2-a]pyridin-2-yl)methyl)(methyl)amino)-5-fluoropyrimidin-2-yl)-2-(4-methylpyrimidin-2-yl)cyclopropane-1-carboxamide]	< 0.4	< 0.001
O=C1CN(c2cc(C3CC3)cn3cc(CNc4ccnc(NC(=O)[C@H]5C[C@@H]5c5cc(Cl)ccn5)n4)nc23)C(=O)N1 (racemic) [Example 521, rac-(1S*,2S*)-2-(4-chloropyridin-2-yl)-N-(4-(((6-cyclopropyl-8-(2,4-dioxoimidazolidin-1-yl)imidazo[1,2-a]pyridin-2-yl)methyl)amino)pyrimidin-2-yl)cyclopropane-1-carboxamide]	0.4 to 1.5	< 0.001
Cc1ccnc([C@H]2C[C@@H]2C(=O)Nc2ncnc(NCc3cn4cc(C5CC5)cc(N5CC(=O)N(C)C5=O)c4n3)n2)n1 (racemic) [Example 623, rac-(1S*,2S*)—N-(4-(((6-cyclopropyl-8-(3-methyl-2,4-dioxoimidazolidin-1-yl)imidazo[1,2-a]pyridin-2-yl)methyl)amino)-1,3,5-triazin-2-yl)-2-(4-methylpyrimidin-2-yl)cyclo propane-1-carboxamide]	< 0.4	< 0.001
Cc1ccnc([C@@H]2[C@@H](C(=O)Nc3cc(NCc4cn5cc(C6CC6)cc(N6CC(=O)N(C)C6=O)c5n4)ncn3)C2(F)F)n1 (racemic) [Example 494, rac-(1S*,3S*)-N-(6-(((6-cyclopropyl-8-(3-methyl-2,4-dioxoimidazolidin-1-yl)imidazo[1,2-a]pyridin-2-yl)methyl)amino)pyrimidin-4-yl)-2,2-difluoro-3-(4-methylpyrimidin-2-yl)cyclopropane-1-carboxamide]	< 0.4	< 0.001
N#CCCc1cc(C2CC2)cn2cc(COc3ccnc(NC(=O)[C@H]4C[C@@H]4c4cccc(Cl)c4)c3)nc12 (racemic) [Example 566, rac-(1S*,2S*)-2-(3-chlorophenyl)-N-(4-((8-(2-cyanoethyl)-6-cyclopropylimidazo[1,2-a]pyridin-2-yl)methoxy)pyridin-2-yl)cyclopropane-1-carboxamide]	10 to 48	0.001 to 0.01
Cc1ccnc([C@H]2C[C@@H]2C(=O)Nc2cc(NC(C)c3cn4cc(C5CC5)cc(N5CC(=O)N(CCO)C5=O)c4n3)nc(C3CC3)n2)n1 (stereo partly drawn) [Example 460, (1S,2S)—N-(2-cyclopropyl-6-((1-(6-cyclopropyl-8-(3-(2-hydroxyethyl)-2,4-dioxoimidazolidin-1-yl)imidazo[1,2-a]pyridin-2-yl)ethyl)amino)pyrimidin-4-yl)-2-(4-methylpyrimidin-2-yl)cyclopropane-1-carboxamide]	1.5 to 10	0.001 to 0.01
N#Cc1ccc(Cl)cc1[C@H]1C[C@@H]1C(=O)Nc1cc(N2C[C@@H](O)C[C@@H]2c2cn3cc(C4CC4)ccc3n2)ncn1 (relative stereo) [Example 477, rac-(1S*,2S*)-2-(5-chloro-2-cyanophenyl)-N-(6-((2R,4S)-2-(6-cyclopropylimidazo[1,2-a]pyridin-2-yl)-4-hydroxypyrrolidin-1-yl)pyrimidin-4-yl)cyclopropane-1-carboxamide]	1.5 to 10	0.001 to 0.01
Cc1ccnc([C@H]2C[C@@H]2C(=O)Nc2cc(N[C@H](C)c3cn4cc(C5CC5)cc(N5CCCC5=O)c4n3)ncn2)n1 [Example 418, (1S,2S)-N-(6-(((R)-1-(6-cyclopropyl-8-(2-oxopyrrolidin-1-yl)imidazo[1,2-a]pyridin-2-yl)ethyl)amino)pyrimidin-4-yl)-2-(4-methylpyrimidin-2-yl)cyclopropane-1-carboxamide]	< 0.4	< 0.001
Cc1ccnc([C@@H]2C[C@H]2C(=O)Nc2cc(OCc3cn4cc(C5CC5)cc(N5CC(=O)N(C)C5=O)c4n3)ncn2)n1 (racemic) [Example 28, rac-(1S*,2S*)—N-(6-((6-cyclopropyl-8-(3-methyl-2,4-dioxoimidazolidin-1-yl)imidazo[1,2-a]pyridin-2-yl)methoxy)pyrimidin-4-yl)-2-(4-methylpyrimidin-2-yl)cyclopropane-1-carboxamide]	0.4 to 1.5	< 0.001
Cc1ccnc([C@H]2C[C@@H]2C(=O)Nc2cc(OC(C)c3cn4cc(C5CC5)cc(N5CC(=O)N(C)C5=O)c4n3)nc(C)n2)n1 (stereo partly drawn) [Example 552, (1S,2S)-N-(6-(1-(6-cyclopropyl-8-(3-methyl-2,4-dioxoimidazolidin-1-yl)imidazo[1,2-a]pyridin-2-yl)ethoxy)-2-methylpyrimidin-4-yl)-2-(4-methylpyrimidin-2-yl)cyclopropane-1-carboxamide]	1.5 to 10	< 0.001
Cc1csc([C@H]2C[C@@H]2C(=O)Nc2cc(NCc3cn4cc(C5CC5)cc(N5CC(=O)N(C)C5=O)c4n3)ncn2)n1 (racemic) [Example 446, rac-(1S*,2S*)—N-(6-(((6-cyclopropyl-8-(3-methyl-2,4-dioxoimidazolidin-1-yl)imidazo[1,2-a]pyridin-2-yl)methyl)amino)pyrimidin-4-yl)-2-(4-methylthiazol-2-yl)cyclopropane-1-carboxamide]	0.4 to 1.5	< 0.001
Cc1ccnc([C@H]2C[C@@H]2C(=O)Nc2cc(NCc3cn4cc(C5CC5)cc(N5CC(=O)N(C)C5=O)c4n3)cc(C(F)(F)F)n2)n1 (racemic) [Example 618, rac-(1S*,2S*)—N-(4-(((6-cyclopropyl-8-(3-methyl-2,4-dioxoimidazolidin-1-yl)imidazo[1,2-a]pyridin-2-yl)methyl)amino)-6-(trifluoromethyl)pyridin-2-yl)-2-(4-methylpyrimidin-2-yl)cyclopropane-1-carboxamide]	0.4 to 1.5	< 0.001

Next, values leading:

IC90 (plasma kallikrein) [µM]	EC50 [1] [µM]	SMILES
0.4 to 1.5	< 0.001	Cc1ccnc([C@H]2C[C@@H]2C(=O)Nc2cc(SCc3cn4cc(C5CC5)cc(N5CC(=O)N(C)C5=O)c4n3)nc(C)n2)n1 [Example I-638, (1S,2S)—N-(6-(((6-cyclopropyl-8-(3-methyl-2,4-dioxoimidazolidin-1-yl)imidazo[1,2-a]pyridin-2-yl)methyl)thio)-2-methylpyrimidin-4-yl)-2-(4-methylpyrimidin-2-yl)cyclopropane-1-carboxamide]
0.4 to 1.5	< 0.001	CN1CCN(c2cc(C3CC3)cn3cc(CNc4cc(NC(=O)[C@H]5C[C@@H]5c5cccc(Cl)c5)ccn4)nc23)CC1 [Example I-243, (1S,2S)-2-(3-chlorophenyl)-N-(2-(((6-cyclopropyl-8-(4-methylpiperazin-1-yl)imidazo[1,2-a]pyridin-2-yl)methyl)amino)pyridin-4-yl)cyclopropane-1-carboxamide]
0.4 to 1.5	< 0.001	CN1C(=O)CN(c2cc(C3CC3)cn3cc(CNc4cc(NC(=O)[C@H]5C[C@@H]5c5nccc(Cl)n5)ncn4)nc23)C1=O (racemic) [Example I-168, rac-(1S*,2S*)-2-(4-chloropyrimidin-2-yl)-N-(6-(((6-cyclopropyl-8-(3-methyl-2,4-dioxoimidazolidin-1-yl)imidazo[1,2-a]pyridin-2-yl)methyl)amino)pyrimidin-4-yl)cyclopropane-1-carboxamide]
0.4 to 1.5	< 0.001	CN(C)C1CCN(c2cc(C3CC3)cn3cc(CNc4ccnc(NC(=O)[C@H]5C[C@@H]5c5cccc(Cl)c5)c4)nc23)C1 (stereo partly drawn) [Example I-25, (1S,2S)-2-(3-chlorophenyl)-N-(4-(((6-cyclopropyl-8-(3-(dimethylamino)pyrrolidin-1-yl)imidazo[1,2-a]pyridin-2-yl)methyl)amino)pyridin-2-yl)cyclopropane-1-carboxamide]
10 to 48	< 0.001	O=C(Nc1cc(NCc2cn3cc(C4CC4)ccc3n2)ccn1)[C@H]1C[C@@H]1c1cc(Cl)ccn1 (racemic) [Example I-268, rac-(1S*,2S*)-2-(4-chloropyridin-2-yl)-N-(4-(((6-cyclopropylimidazo[1,2-a]pyridin-2-yl)methyl)amino)pyridin-2-yl)cyclopropane-1-carboxamide]
< 0.4	< 0.001	CN1CC(F)(c2cc(C3CC3)cn3cc(CNc4ccnc(NC(=O)[C@H]5C[C@@H]5c5cccc(Cl)c5)c4)nc23)C1 [Example I-227, (1S,2S)-2-(3-chlorophenyl)-N-(4-(((6-cyclopropyl-8-(3-fluoro-1-methylazetidin-3-yl)imidazo[1,2-a]pyridin-2-yl)methyl)amino)pyridin-2-yl)cyclopropane-1-carboxamide]
